Like-named read-outs stand apart in the source and are kept apart here.
What was measured:
Staphylococcus aureus [1] = experiment: MIC of propylene glycol alone and mixed with lactic acid; format: cell-based; settings: propylene glycol (100%) alone
Description: (§1) The minimal inhibitory concentration (MIC) for propylene glycol (100%) tested on the bacterium Staphylococcus aureus and the dermophyte Tricophyton rubrum dropped from 8 % to 0.15 % and 0.38 % respectively if lactic acid was mixed with propylene glycol in the ratios 3:10 or 2:3. The composition gave a minimal inhibitory effect at concentration 0.25% and 0.5 % respectively. These MIC-values should be compared with the considerably higher MIC-values of 40 %, which were obtained when propylene glycol at 20 % was combined with aluminium acetotartrate (SE 8802257-9). […] Also other concentration ratios gave stronger but not optimum effect. The antimicrobial effects were not proportionate to the degree of acidity (pH).

Tricophyton rubrum = experiment: as above; format: cell-based; settings: propylene glycol (100%) alone
Description: as §1

fungi and bacteria = settings: in vitro, cited from earlier work; for antimicrobial effect on comparison: 30 % diol
Pityrosporum ovale = settings: 50 % aqueous solution; cited from earlier work
[2] = pH in the various MIC plates; format: physicochemical
Method: (§2) The components included in the composition were weighed with decimal precision. A dilution series in sterile destilled water was made where the completed composition is dilution 1. Dilution 2 is 50 % of the composition, dilution 3 is 25 % etc. One thus gets a series of 100 - 50 - 25 - 12.5 - 6.3- 3.1 - 1.6 - 0.8 - 0.4 - 0.2 - 0.1 %. To said dilutions the same amount (volume) of Oxoids Isosensitest agar was added at 62.4 g medium per litre.
(§3) The Isosensitest agar is prepared and sterilized according to the maker's instructions. […] Furthermore a plate without the composition was prepared, called a blanc plate. From the different mixtures MIC-plates are moulded in sterile Petri dishes. From each agent a suspension was made corresponding to MacFarland 1. From this 0.2 ml was added to each MIC-plate and the blanc plate with a pipette. The MIC-plates were incubated in a thermostat having an optimum temperature for the agent. The MIC-value is the concentration of the composition on the MIC-plate where growth has stopped completely. Example. Agent 1 grows in 0.1 %, 0.2 %, 0.4 %, On the 0.8 %-plate the growth is weak but visible.

Aspergillus niger = experiment: MIC-plate determination (agar dilution), agents D1 and D2; format: cell-based; settings: clinical isolate
Method: (§4) A determination of the minimum inhibitory concentration (MIC) was carried out for different compositions of acid/glycol on different microorganisms.
as §2, §3

Malassezia furfur = experiment: MIC-plate determination (agar dilution), agent B1; format: cell-based; settings: agent B1, Malassezia furfur (Pityrosporum ovale)
Method: as §4, §2, §3

Pityrosporum orbiculare = experiment: MIC-plate determination (agar dilution), agent B2; format: cell-based; settings: agent B2, Pityrosporum orbiculare (Pityrosporum ovale)
Method: as §4, §2, §3

Candica albicans = experiment: MIC-plate determination (agar dilution), agents A1 and A2; format: cell-based; settings: clinical isolate
Method: as §4, §2, §3

Staphylococcus aureus [3] = experiment: MIC-plate determination (agar dilution), agents E1 and E2; format: cell-based; settings: clinical isolate
Method: as §4, §2, §3

Trichophyton rubrum = experiment: MIC-plate determination (agar dilution), agents C1 and C2; format: cell-based; settings: clinical isolate
Method: as §4, §2, §3

Streptococcus pyogenes = experiment: MIC-plate determination (agar dilution), agents F1 and F2; format: cell-based; settings: clinical isolate
Method: as §4, §2, §3

Pseudomonas aeruginosa = experiment: MIC-plate determination (agar dilution), agents G1 and G2; format: cell-based; settings: clinical isolate
Method: as §4, §2, §3

For `CC(O)CO` (stereo not drawn) [Composition 1, Propylene glycol], the “minimal inhibitory concentration (MIC) for propylene glycol” value (Staphylococcus aureus [1]) is given as 8%, the “minimal inhibitory concentration (MIC) for propylene glycol” value (Tricophyton rubrum) is given as 8% and the “antimicrobial effect on comparison” value (fungi and bacteria) is given as “about as effective as 10 % hexylene glycol”. The “effect against Pityriasis versicolor” value (Pityrosporum ovale) was “effective”.

For `CC(O)CC(C)(C)O` (stereo not drawn) [Composition 3], the “pH in the MIC plate” value ([2]; MIC-plate 0.05 (% composition in Isosensitest agar)) was 7, the “pH in the MIC plate” value ([2]; MIC-plate 0.1 (% composition in Isosensitest agar)) was 7 and the “pH in the MIC plate” value ([2]; MIC-plate 0.2 (% composition in Isosensitest agar)) was 7. For the same molecule, the “pH in the MIC plate” value ([2]; MIC-plate 0.4 (% composition in Isosensitest agar)) was 7, the “pH in the MIC plate” value ([2]; MIC-plate 0.8 (% composition in Isosensitest agar)) was 7 and the “pH in the MIC plate” value ([2]; MIC-plate 1.6 (% composition in Isosensitest agar)) was 7. The “pH in the MIC plate” value ([2]; MIC-plate 3.1 (% composition in Isosensitest agar)) was 7, the “pH in the MIC plate” value ([2]; MIC-plate 6.3 (% composition in Isosensitest agar)) was 7 and the “pH in the MIC plate” value ([2]; MIC-plate 12.5 (% composition in Isosensitest agar)) was 7. The “pH in the MIC plate” value ([2]; MIC-plate 25 (% composition in Isosensitest agar)) was 7, the “pH in the MIC plate” value ([2]; MIC-plate 50 (% composition in Isosensitest agar)) was 7 and the MIC-value (Aspergillus niger; agent D1, Aspergillus niger) was 6.3%. For the same molecule, the MIC-value (Aspergillus niger; agent D2, Aspergillus niger) was 6.3%, the MIC-value (Malassezia furfur) was 25% and the MIC-value (Pityrosporum orbiculare) was 25%. For the same molecule, the MIC-value (Candica albicans; agent A1, Candica albicans) was 6.3%, the MIC-value (Candica albicans; agent A2, Candica albicans) was 6.3% and the MIC-value (Staphylococcus aureus [3]; agent E1, Staphylococcus aureus) was 12.5%. The MIC-value (Staphylococcus aureus [3]; agent E2, Staphylococcus aureus) was 12.5%, the MIC-value (Trichophyton rubrum; agent C1, Trichophyton rubrum) was 0.8% and the MIC-value (Trichophyton rubrum; agent C2, Trichophyton rubrum) was 0.8%. It also gave an MIC-value (Streptococcus pyogenes; agent F1, Streptococcus pyogenes) of 12.5%, an MIC-value (Streptococcus pyogenes; agent F2, Streptococcus pyogenes) of 12.5% and an MIC-value (Pseudomonas aeruginosa; agent G1, Pseudomonas aeruginosa) of 1.6%. The MIC-value (Pseudomonas aeruginosa; agent G2, Pseudomonas aeruginosa) was 3.1%.

In the case of Hexylene glycol [Composition 3], the antimicrobial effect (fungi and bacteria; 1 % of the agent) is given as “lacked effect”, the antimicrobial effect (fungi and bacteria; 5 % hexylene glycol) is given as “a certain antimicrobial effect” and the antimicrobial effect (fungi and bacteria; 10-30 % hexylene glycol) is given as “showed antimicrobial effect within 20 hours”.

In the case of `OCCCCO` [Composition 2, Butylene glycol], the “antimicrobial effect on comparison” value (fungi and bacteria) is listed as “about as effective as 10 % hexylene glycol”.

Source: patent publication EP0785714B2, “ANTIMICROBIAL COMPOSITION” (Moberg, Sven, priority 1994, dated 1996)
